# Test results taken from article PMC10319141, “Imidazoquinolines with improved pharmacokinetic properties induce a high IFNα to TNFα ratio in vitro and in vivo” (Frontiers in Immunology, 2023).
# Where two headings read alike, the source gives them in different places.
# Columns and labels:
# human TLR8 = molecular target: T1, human TLR8 (Homo sapiens, UniProt Q9NR97); experiment: HEK-Blue hTLR8 SEAP reporter assay; assay type: cell-based; details: for TLR8 activity rel. to assay max: average maximal SEAP secretion relative to maximum secretion observed in the assay; for SEAP secretion from HEK-Blue hTLR-8: in words
# T1 construct: host or cells: HEK blue hTLR8 reporter cells
# T1 sequence (Q9NR97 27-1041): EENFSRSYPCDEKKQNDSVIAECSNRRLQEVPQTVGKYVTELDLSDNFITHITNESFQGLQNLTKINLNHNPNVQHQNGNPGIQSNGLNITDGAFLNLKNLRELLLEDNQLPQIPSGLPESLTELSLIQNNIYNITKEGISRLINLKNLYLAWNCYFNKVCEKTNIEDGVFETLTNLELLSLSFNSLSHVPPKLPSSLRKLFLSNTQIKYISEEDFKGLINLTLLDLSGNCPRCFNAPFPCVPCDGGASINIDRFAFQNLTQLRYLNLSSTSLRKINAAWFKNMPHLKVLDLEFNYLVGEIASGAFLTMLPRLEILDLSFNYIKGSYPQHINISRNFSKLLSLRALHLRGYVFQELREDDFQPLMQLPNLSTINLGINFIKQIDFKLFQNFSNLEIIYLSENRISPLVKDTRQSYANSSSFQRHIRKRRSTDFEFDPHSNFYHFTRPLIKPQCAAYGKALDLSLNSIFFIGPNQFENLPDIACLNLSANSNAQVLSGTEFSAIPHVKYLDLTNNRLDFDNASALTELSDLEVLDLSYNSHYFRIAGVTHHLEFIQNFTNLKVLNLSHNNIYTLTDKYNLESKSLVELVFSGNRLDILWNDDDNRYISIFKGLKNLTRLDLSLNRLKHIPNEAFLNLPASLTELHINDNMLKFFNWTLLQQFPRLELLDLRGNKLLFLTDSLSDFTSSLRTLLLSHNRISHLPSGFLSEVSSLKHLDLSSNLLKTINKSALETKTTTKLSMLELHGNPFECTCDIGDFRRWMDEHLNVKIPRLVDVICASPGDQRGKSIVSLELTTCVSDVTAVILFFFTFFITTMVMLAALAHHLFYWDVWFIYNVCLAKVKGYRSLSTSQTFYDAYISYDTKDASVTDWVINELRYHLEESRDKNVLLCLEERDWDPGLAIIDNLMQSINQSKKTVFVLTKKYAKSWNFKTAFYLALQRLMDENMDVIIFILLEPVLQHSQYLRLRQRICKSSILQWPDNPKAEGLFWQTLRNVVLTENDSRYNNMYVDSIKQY
# Protocol: (§1) HEK blue hTLR7 or hTLR8 reporter cells (Invivogen) were cultivated in DMEM High Glucose (Biowest) according to the manufacturer’s instructions. Cells were treated with test compounds and controls at various concentrations in serum-free DMEM and incubated at 37°C, 5% CO2 for 24 h before supernatants were collected.
# (§2) Relative secreted embryonic alkaline phosphatase (SEAP) activity in the supernatants was determined by quantification of para-Nitrophenyl Phosphate (pNPP)-turnover. Supernatants were diluted 10-fold in a solution containing 1 mM MgCl2, 1 M diethanolamine and 1 mg/mL pNPP and incubated at RT for 15 min before the reaction was stopped by the addition of 0.25 volumes of 1 M NaOH. Absorbance was measured at 405 nm on a Versamax microplate reader (Molecular Devices) and normalized to the mean of >5 solvent controls.
# (§3) To obtain reliable estimates, replicate measurements of a minimum of 2 experiments were normalized to the maximal SEAP activity of a compound in a given experiment and pooled before fitting a non-linear function to the data.
# human TLR7 = molecular target: T2, human TLR7 (Homo sapiens, UniProt Q9NYK1); experiment: HEK-Blue hTLR7 SEAP reporter assay; assay type: cell-based; details: for TLR7 activity rel. to assay max: average maximal SEAP secretion relative to maximum secretion observed in the assay
# T2 construct: host or cells: HEK blue hTLR7 reporter cells
# T2 sequence (Q9NYK1 27-1049): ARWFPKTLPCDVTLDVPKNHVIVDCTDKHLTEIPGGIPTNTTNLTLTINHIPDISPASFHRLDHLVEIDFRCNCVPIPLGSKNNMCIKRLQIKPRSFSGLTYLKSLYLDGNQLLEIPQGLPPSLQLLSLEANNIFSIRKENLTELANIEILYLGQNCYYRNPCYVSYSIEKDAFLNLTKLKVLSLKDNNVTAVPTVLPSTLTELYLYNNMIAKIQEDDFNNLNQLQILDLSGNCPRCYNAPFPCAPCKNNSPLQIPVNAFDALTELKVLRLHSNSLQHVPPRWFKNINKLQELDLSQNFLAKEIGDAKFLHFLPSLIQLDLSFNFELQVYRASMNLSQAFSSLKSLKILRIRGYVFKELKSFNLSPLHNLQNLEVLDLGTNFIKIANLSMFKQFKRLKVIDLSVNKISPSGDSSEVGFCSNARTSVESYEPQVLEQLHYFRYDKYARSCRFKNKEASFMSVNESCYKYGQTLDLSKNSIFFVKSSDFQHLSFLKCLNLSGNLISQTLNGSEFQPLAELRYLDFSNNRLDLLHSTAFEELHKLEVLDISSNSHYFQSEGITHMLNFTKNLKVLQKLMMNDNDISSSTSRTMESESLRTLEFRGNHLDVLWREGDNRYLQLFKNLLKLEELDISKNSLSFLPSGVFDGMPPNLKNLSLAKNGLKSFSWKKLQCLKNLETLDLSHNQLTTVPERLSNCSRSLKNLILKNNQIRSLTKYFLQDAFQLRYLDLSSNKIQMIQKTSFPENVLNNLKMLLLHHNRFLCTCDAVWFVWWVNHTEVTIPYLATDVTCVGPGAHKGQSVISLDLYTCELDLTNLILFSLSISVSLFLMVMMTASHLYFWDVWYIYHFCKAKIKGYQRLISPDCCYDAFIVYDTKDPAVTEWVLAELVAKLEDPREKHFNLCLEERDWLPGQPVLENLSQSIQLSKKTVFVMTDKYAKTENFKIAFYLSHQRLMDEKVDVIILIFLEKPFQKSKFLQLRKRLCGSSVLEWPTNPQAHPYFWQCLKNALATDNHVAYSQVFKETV
# Protocol: as §1, §2, §3
# [1] = Compound concentrations in organs and plasma after three consecutive daily s.c. treatments (Figure 6B, S7); assay type: in vivo, mice; details: for compound plasma level at peak: s.c.; for concentration at 4 h / concentration at 28 h / concentration at 52 h: mouse, sc, repeated daily s.c. treatment; for concentration at 4 h: after 4 h; for concentration at 28 h: after 28 h; for concentration at 52 h: after 52 h
# Protocol: All samples were extracted with 3 or 6 volumes acetonitrile containing terbuthylazine as an internal standard (ACN) relative to either sample weight or volume. Liquid samples (plasma, culture medium, cell suspensions in stability experiments) were diluted in either 3 (culture medium, cell suspensions) or 6 (plasma) volumes ACN, pellet and blood samples were extracted by addition of ACN followed by sonication for 5 min. Organ samples were digested with 0.5 µg/mg Proteinase K (Genaxxon) for 1 h at 50°C before being homogenized using a Fastprep FP-24 5G instrument (MP-Biomedicals). Homogenates were diluted with 6 volumes ACN and homogenized again. All extracts were cleared by centrifugation at ~20.000xg for 10 min at 4°C.
# Quantification of analytes was performed on an Agilent 1260/1290 Infinity system fitted with an Agilent C18 Poroshell 120 column (4.6 x 50 mm, 2.7 µm) coupled to a triple quadrupole Sciex API 4000 MS/MS detector. The mobile phase was composed of water containing 0.1% formic acid (eluent A) and acetonitrile containing 0.1% formic acid (eluent B). Gradient used was: 5% B for 0.5 min, to 100% B in 4.5 min, 100% B for 2 min, to 5% B in 0.5 min, 5% for 2.5 min. MS detection parameters are listed in SI Table S1 .
# Formulation. Test compounds were prepared for application in either 1% Tween 80, 9% PEG400 in ultrapure water (Biowest) (i.v., i.p., p.o. application) or 5 mM citric acid in 0.9% saline (Braun) (subcutaneous application). If compounds were administered subcutaneously, injections were carried out into the neck crease.
# Collection of Samples. Mice were bled from the tail vein at various timepoints. Heparin (Sigma) or K2-EDTA (Sigma) was added to blood samples to a final […] concentration of 10-15 Unit or 5 mM. Plasma was generated by centrifugation at 6800xg for 8 min at 4°C and stored at -80°C until analyzed by ELISA or CBA. Animals were sacrificed after the indicated time points by CO2 inhalation. Heart blood and organs for compound quantification by HPLC-MS/MS were collected post mortem and stored at –20°C until extracted as described above.
# Dotted lines indicate the time of repeated compound applications. (A) Cytokine levels in pooled tail plasma of mice from individual treatment groups (n=3 per pool and time point), error bars represent range of two replicate measurements. (B) Peripheral blood was collected from the tail vein before, 15, 30 60, 120, 240, 360 and 480 min after s.c. treatment. Compound concentration in peripheral plasma was analyzed by HPLC-MS/MS, data presented as mean ± SD.
# Samples were collected 4 h, 28 h and 52 h after s.c. treatment. Skin samples were sampled
# at time points 4 h and 52 h. Compound concentrations were analyzed by HPLC-MS/MS, data
# PMA-differentiated U937 = experiment: MTT viability assay in PMA-differentiated U937; assay type: cell-based; details: 25 µM; PMA-differentiated U937, 2 days
# undifferentiated U937 = experiment: Helix NIR dye exclusion in undifferentiated U937; assay type: cell-based; details: 25 µM; in words
# Protocol: Exclusion of Helix NIR (BioLegend) was used to assay membrane integrity following compound treatment. Culture conditions for U937 were as described above, undifferentiated cells were incubated with varying concentrations of compound or with solvent. Helix NIR was added to the cells to a final concentration of 10 nM, cells were incubated at RT for 10 min and acquired on a ZE5 Cell Analyzer (Bio-Rad). The cutoff for positive staining was set to approximately the 99th percentile of unstained cells.
# [2] = 95% CI, HEK-blue human TLR8, 24 h, read-out: TLR8 EC50
# [3] = Figure S4, axis c/[µM], pooled from 3 experiments, read-out: compound-specific EC50 in dose response plot, HEK Blue hTLR8
# [4] = 95% CI, HEK-blue human TLR7, 24 h, read-out: TLR7 EC50
# [5] = Figure S3, axis c/[µM], pooled from 3 experiments, read-out: compound-specific EC50 in dose response plot, HEK Blue hTLR7
# [6] = brain, read-out: concentration in brain
# [7] = liver, read-out: concentration in liver
Compound,maximal induction in HEK-Blue hTLR-8 (lower than that of RSQ) (human TLR8) [%],EC50 (human TLR8; [2]) [µM],EC50 (human TLR8; [3]) [µM],TLR8 activity rel. to assay max (human TLR8),EC50 (human TLR7; [4]) [µM],EC50 (human TLR7; [5]) [µM],TLR7 activity rel. to assay max (human TLR7),"compound plasma level at peak ([1]; day 1, 60 min after application) [nM]","compound plasma level at peak ([1]; day 2, 60 min after application) [nM]","compound plasma level at peak ([1]; day 3, 60 min after application) [nM]","concentration at 4 h [1, 6] [nM]","concentration at 28 h [1, 6] [nM]","concentration at 52 h [1, 6] [nM]","concentration at 4 h [1, 7] [nM]","concentration at 28 h [1, 7] [nM]","concentration at 52 h [1, 7] [nM]",SEAP secretion from HEK-Blue hTLR-8 (human TLR8),Average maximal activity in HEK-Blue hTLR7 relative to RSQ (human TLR7) [%],"effect on membrane integrity, dye exclusion assay in U937 (undifferentiated U937)","MTT U937, percent MTT conversion relative to solvent controls (PMA-differentiated U937) [%]"
"CC(C)Cn1cnc2c(N)nc3ccccc3c21 [IMQ, Imiquimod]",,,,,5.2 to 8.3,6.52,35% ± 7%,796,606,608,32,135,177,630,824,645,,,,
CCCCc1nc2c(N)nc3ccccc3c2n1CCC1CCN(C(=O)OC(C)(C)C)CC1 [A1-boc],,,,4% ± 2%,0.39 to 0.69,0.527,55% ± 7%,,,,,,,,,,close to baseline,55,negative effects on membrane integrity,50
CCCCc1nc2c(N)nc3ccccc3c2n1CC1CCN(C(=O)OC(C)(C)C)CC1 [A2-boc],,,,4% ± 1%,0.23 to 0.47,,86% ± 9%,,,,,,,,,,close to baseline,86,,

# The next lines start with results.
maximal induction in HEK-Blue hTLR-8 (lower than that of RSQ) (human TLR8) [%],EC50 (human TLR8; [2]) [µM],EC50 (human TLR8; [3]) [µM],TLR8 activity rel. to assay max (human TLR8),EC50 (human TLR7; [4]) [µM],EC50 (human TLR7; [5]) [µM],TLR7 activity rel. to assay max (human TLR7),"compound plasma level at peak ([1]; day 1, 60 min after application) [nM]","compound plasma level at peak ([1]; day 2, 60 min after application) [nM]","compound plasma level at peak ([1]; day 3, 60 min after application) [nM]","concentration at 4 h [1, 6] [nM]","concentration at 28 h [1, 6] [nM]","concentration at 52 h [1, 6] [nM]","concentration at 4 h [1, 7] [nM]","concentration at 28 h [1, 7] [nM]","concentration at 52 h [1, 7] [nM]",SEAP secretion from HEK-Blue hTLR-8 (human TLR8),Average maximal activity in HEK-Blue hTLR7 relative to RSQ (human TLR7) [%],"effect on membrane integrity, dye exclusion assay in U937 (undifferentiated U937)",Compound,"MTT U937, percent MTT conversion relative to solvent controls (PMA-differentiated U937) [%]"
36,8.2 to 8.5,8.36,36% ± 4%,1 to 1.5,1.24,62% ± 9%,,,,,,,,,,,,,CCCCc1nc2c(N)nc3ccccc3c2n1CCOCCOCCN [A3],
18,11 to 13,12.1,18% ± 8%,1.5 to 2.1,1.76,84% ± 5%,,,,,,,,,,,,,CCCCc1nc2c(N)nc3ccccc3c2n1CCOCCOCCO [A4],
57,2.8 to 3.1,2.96,57% ± 9%,0.075 to 0.12,0.0957,81% ± 13%,,,,,,,,,,,81,,CCCCc1nc2c(N)nc3ccccc3c2n1CC1CCNCC1 [A2],
